Data as given in ChEMBL document CHEMBL1914286, “Design, structure-activity relationship, and highly efficient asymmetric synthesis of 3-phenyl-4-benzylaminopiperidine derivatives as novel neurokinin-1 receptor antagonists” (Bioorg Med Chem, 2011).

Columns and labels:
Substance-P receptor = Substance-P receptor (Homo sapiens, UniProt P25103); experiment: biochemical
Description: Displacement of [125I]BH-SP from NK1 receptor in human IM9 cells after 30 mins by scintillation counting

Cavia porcellus [1] = species: Cavia porcellus; experiment: animal or person; conditions: Hartley, po, 0.75 h, read-out: INH
physchem = conditions: buffer, pH 7.4
Description: Lipophilicity, log D of the compound at pH 7.4

Cavia porcellus [2] = experiment: Antagonist activity at NK1 receptor in po dosed Hartley guinea pig assessed as inhibition of GR73632-induced hypermotility measured after 0.75 hrs; type: functional; conditions: for ED50: Cavia porcellus, Hartley, po, 0.75 h, read-out: ID50 (the source's name)
in vitro = conditions: human, liver microsomes, Stability
Description: (§1) Metabolic stability in human liver microsomes at 1 uM

Liver microsomes = conditions: human, 1 µM
Description: as §1

Chain of Substance-P receptor (P25103 whole entry): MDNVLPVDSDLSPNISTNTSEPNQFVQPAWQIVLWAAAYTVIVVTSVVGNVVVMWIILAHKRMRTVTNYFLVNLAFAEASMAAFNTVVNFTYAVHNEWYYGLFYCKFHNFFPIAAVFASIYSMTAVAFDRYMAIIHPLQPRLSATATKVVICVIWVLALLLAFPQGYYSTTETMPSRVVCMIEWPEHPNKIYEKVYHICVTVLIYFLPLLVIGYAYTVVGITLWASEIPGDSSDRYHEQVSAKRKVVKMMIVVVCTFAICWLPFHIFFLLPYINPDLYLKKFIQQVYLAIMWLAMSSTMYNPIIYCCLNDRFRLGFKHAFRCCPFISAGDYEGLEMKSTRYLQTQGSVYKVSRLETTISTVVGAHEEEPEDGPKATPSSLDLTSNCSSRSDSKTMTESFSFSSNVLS

IC50 (Substance-P receptor) [nM] | logD (physchem) | microsomal CLint at 1 µM (in vitro) [µL/min/mg] | Stability (Liver microsomes) [µL/min/mg] | SMILES | inhibition in vivo at 1 mg/kg (Cavia porcellus [1]) [%] | ED50 (Cavia porcellus [2]) [mg/kg] | ID50 (Cavia porcellus [2]) [mg/kg]
0.17 |  |  |  | CCNC(=O)N1CC[C@H](NCc2cc(OC(F)(F)F)ccc2OC)[C@H](c2ccccc2)C1 (racemic) |  |  | 
0.31 |  |  |  | COC(=O)N1CC[C@H](NCc2cc(OC(F)(F)F)ccc2OC)[C@H](c2ccccc2)C1 (racemic) |  |  | 
0.039 | 2.79 | 159 |  | CCNC(=O)N1CC[C@H](NCc2cc(-n3nnnc3C(F)(F)F)ccc2OC)[C@H](c2ccccc2)C1.Cl (racemic) | 70 | 0.37 | 
0.025 | 2.43 | 146 |  | COc1ccc(-n2nnnc2C(F)(F)F)cc1CN[C@H]1CCN(C(=O)CCCNC(C)=O)C[C@H]1c1ccccc1 (racemic) |  |  | 
4.8 |  |  |  | CCN1CC[C@H](NCc2cc(OC(F)(F)F)ccc2OC)[C@H](c2ccccc2)C1 (racemic) |  |  | 
0.057 | 3.03 | 155 |  | COc1ccc(-n2nnnc2C(F)(F)F)cc1CN[C@H]1CCN(C(=O)NCC(F)(F)F)C[C@H]1c1ccccc1 (racemic) | 65 |  | 
8.4 |  |  |  | COc1ccc(OC(F)(F)F)cc1CN[C@H]1CCNC[C@H]1c1ccccc1 (racemic) |  |  | 
0.073 | 2.28 |  | 32 | COc1ccc(-n2nnnc2C(F)(F)F)cc1CN[C@H]1CCN(C(=O)CNC(C)=O)C[C@H]1c1ccccc1 (racemic) | 99 |  | 0.26
0.075 |  | 144 |  | COc1ccc(-n2nnnc2C(F)(F)F)cc1CN[C@H]1CCN(S(C)(=O)=O)C[C@H]1c1ccccc1 (racemic) | 18 |  | 
1.4 |  |  |  | COc1ccc(-n2nnnc2C(F)(F)F)cc1CN[C@H]1CCNC[C@H]1c1ccccc1 (racemic) |  |  | 
0.2 |  | 34 |  | COc1ccc(-n2nnnc2C(F)(F)F)cc1CN[C@@H]1CCN(C(=O)CNC(C)=O)C[C@H]1c1ccccc1 (racemic) |  |  | 
1.9 |  |  |  | CCN1CC[C@H](NCc2cc(-n3nnnc3C(F)(F)F)ccc2OC)[C@H](c2ccccc2)C1 (racemic) |  |  | 
0.093 |  | 160 |  | CCNC(=O)N1CC[C@H](NCc2cc(-n3nnnc3C(F)(F)F)cc3c2OCC3)[C@H](c2ccccc2)C1 (racemic) | 57 |  | 
0.049 | 2.69 | 111 |  | COc1ccc(-n2nnnc2C(F)(F)F)cc1CN[C@H]1CCN(C(C)=O)C[C@H]1c1ccccc1.Cl (racemic) | 82 | 0.2 | 
0.084 | 2.31 | 73 |  | COc1ccc(-n2nnnc2C(F)(F)F)cc1CN[C@H]1CCN(C(=O)CN(C)C(C)=O)C[C@H]1c1ccccc1 (racemic) | 74 |  | 
> 100 |  |  |  | COc1ccc(-n2nnnc2C(F)(F)F)cc1CN[C@@H]1CCN(C(=O)CNC(C)=O)C[C@@H]1c1ccccc1 |  |  | 
0.081 | 3.09 | 167 |  | COc1ccc(-n2nnnc2C(F)(F)F)cc1CN[C@H]1CCN(C(=O)NC(C)C)C[C@H]1c1ccccc1 (racemic) | 66 |  | 
0.16 |  |  |  | COc1ccc(OC(F)(F)F)cc1CN[C@H]1CCN(C(C)=O)C[C@H]1c1ccccc1 (racemic) |  |  | 
0.1 | 2.51 | 76 |  | COc1ccc(-n2nnnc2C(F)(F)F)cc1CN[C@H]1CCN(C(=O)C2CCN(C(C)=O)CC2)C[C@H]1c1ccccc1.Cl (racemic) | 85 | 0.33 | 
0.054 | 2.35 | 95 |  | COc1ccc(-n2nnnc2C(F)(F)F)cc1CN[C@H]1CCN(C(=O)CCNC(C)=O)C[C@H]1c1ccccc1.Cl (racemic) | 79 | 0.34 | 
0.054 |  | 199 |  | COC(=O)N1CC[C@H](NCc2cc(-n3nnnc3C(F)(F)F)ccc2OC)[C@H](c2ccccc2)C1 (racemic) | 65 |  | 
1.2 |  |  |  | COc1ccc(OC(F)(F)F)cc1CN[C@H]1CCN(S(C)(=O)=O)C[C@H]1c1ccccc1 (racemic) |  |  | 
0.13 | 3.18 | 213 |  | COc1ccc(-n2nnnc2C(F)(F)F)cc1CN[C@H]1CCN(C(=O)N(C)C)C[C@H]1c1ccccc1 (racemic) | 90 |  | 
3.7 |  |  |  | CCNC(=O)N1CC[C@@H](NCc2cc(OC(F)(F)F)ccc2OC)[C@H](c2ccccc2)C1 (racemic) |  |  | 
0.086 |  | 218 |  | CCNC(=O)N1CC[C@H](NCc2cc(-n3nnnc3C(F)(F)F)ccc2OCC)[C@H](c2ccccc2)C1 (racemic) | 35 |  | 
0.044 |  | 217 |  | CCNC(=O)N1CC[C@H](NCc2cc(-n3nnnc3C(F)(F)F)ccc2OC2CC2)[C@H](c2ccccc2)C1 (racemic) | 94 |  | 
 |  |  | 8 | COc1ccc(-n2nnnc2C(F)(F)F)cc1CN[C@H]1CCN(C(=O)CNC(C)=O)C[C@H]1c1ccccc1 |  |  | 0.066
0.057 | 2.31 | 27 |  | COc1ccc(-n2nnnc2C(F)(F)F)cc1CN[C@H]1CCN(C(=O)C2CN(C(C)=O)C2)C[C@H]1c1ccccc1 (racemic) | 32 |  | 
